The values below come from patent US6787125B1, “Compound screening method” (priority 1999, dated 2004).

Where a name gives a salt, the structure may show the parent alone. Read-outs that look alike come from different tables or passages of the source.

In the assay the test system is C. elegans. In kind it is in vivo. An excerpt:
Nematode worms that are placed in liquid culture will move in such a way that they maintain a more or less even (or homogeneous) distribution throughout the culture. Nematode worms that are defective in movement will precipitate to the bottom in liquid culture.
Advanced multi-well plate readers are able to detect sub-regions of the wells of multi-well plates. By using these plate readers it is possible to take measurements in selected areas of the surface of the wells of the multi-well plates. If the area of measurement is centralized, so that only the middle of the well is measured, a difference in nematode autofluorescence (fluorescence which occurs in the absence of any external marker molecule) or optical density can be observed in the wells containing nematodes that move normally as compared to wells containing nematodes that are defective for movement. For the wells containing the nematodes that move normally, a low level of autofluorescence or optical density will be observed, whilst a high level of autofluorescence or optical density can be observed in the wells that contain the nematodes that are defective in movement. Optical density is measured using a variation of the platelet aggregation assay, which is well known in the art. Using the MRX revelation device from Dynex (USA), optical density can be measured at multiple points per well, showing the precipitation pattern of the nematodes.
In an adaptation of the movement assay, autofluorescence or optical density measurements can be taken in two areas of the surface of the well, one measurement in the centre of the well, and on measurement on the edge of the well. Comparing the two measurements gives analogous results as in the case if only the centre of the well is measured but the additional measurement of the edge of the well results in an extra control and somewhat more distinct results.

On to “7-(Dimethylcarbamoyloxy)-6-phenylpyrrolo”, for which the “movement assay reading, first number column (no head printed)” value (Table 10 c3) came out at 14278. Moreover, the “movement assay reading, second number column (no head printed)” value (Table 10 c4) is 32900. Further, the “hit call: detectable change in the movement behaviour” value (“hit call: detectable change” for short) (Table 10 c7) is “HIT”.

Take `NC(CCCCCC(=O)O)C(=O)O` (racemic) [DL-2-Aminosuberic acid]: where the note is “in vivo”, the “hit call: detectable change” value is given as “HIT”; the “movement assay reading, first number column (no head printed)” value was 17141; the “movement assay reading, second number column (no head printed)” value is 33518.

Turning to `N[C@H](C(=O)O)[C@H](CC(=O)O)c1ccc(Cl)cc1` [(2S,3R)-Chloropheg], the “movement assay reading, first number column (no head printed)” value (Table 10 c3) is 21514. Also, the “movement assay reading, second number column (no head printed)” value (Table 10 c4) stood at 48736. Also, under “Table 10 c7”, the “hit call: detectable change” value is “HIT”.

For the compound `CC(=O)O[C@H](CC(=O)[O-])C[N+](C)(C)C` [(n)-Acetylcarnitine], the “movement assay reading, first number column (no head printed)” value (Table 10 c3) stood at 23457. The “movement assay reading, second number column (no head printed)” value (Table 10 c4) is listed as 44156. Besides, where the note is “Table 10 c7”, the “hit call: detectable change” value was “HIT”.

For the compound `CC#CCOC(=O)C1=CCCN(C)C1` [Arecaidine but-2-ynyl ester], the “movement assay reading, first number column (no head printed)” value (Table 10 c3) is 20002. The “movement assay reading, second number column (no head printed)” value (Table 10 c4) is reported as 37675. For the same compound, under “Table 10 c7”, the “hit call: detectable change” value is recorded as “HIT”.

As to `CC(C)(Oc1ccc(Cl)cc1)C(=O)O` [Clofibric acid], the “movement assay reading, first number column (no head printed)” value (Table 10 c3) was found to be 22933. The “movement assay reading, second number column (no head printed)” value (Table 10 c4) turned out to be 40916. Further, for the setting “Table 10 c7”, the “hit call: detectable change” value was “HIT”.

Regarding `NC1(C(=O)O)CCCC1` [Cycloleucine], the “movement assay reading, first number column (no head printed)” value (Table 10 c3) was determined as 19234. Also, the “movement assay reading, second number column (no head printed)” value (Table 10 c4) was determined as 36560. Moreover, the “hit call: detectable change” value (Table 10 c7) is recorded as “HIT”.

On to `NC(CCCP(=O)(O)O)C(=O)O` [D-AP5], for which the “movement assay reading, first number column (no head printed)” value (Table 10 c3) is 19717. The “movement assay reading, second number column (no head printed)” value (Table 10 c4) was found to be 41697. Further, the “hit call: detectable change” value (Table 10 c7) was “HIT”.

Turning to `CCN(CC)CCOc1ccc(Cc2ccccc2)cc1` [DPPE], for the setting “Table 10 c3”, the “movement assay reading, first number column (no head printed)” value came to 20365. Moreover, for the setting “Table 10 c4”, the “movement assay reading, second number column (no head printed)” value was 43629. The “hit call: detectable change” value (Table 10 c7) was “HIT”.

As for `CN(C)CCCn1cc(C2=C(c3c[nH]c4ccccc34)C(=O)NC2=O)c2ccccc21` [GF 109203X], where the note is “Table 10 c3”, the “movement assay reading, first number column (no head printed)” value is listed as 15685. Besides, the “movement assay reading, second number column (no head printed)” value (Table 10 c4) is recorded as 34448. Under “Table 10 c7”, the “hit call: detectable change” value is listed as “HIT”.

As to `COc1ccc(CNC(=O)/C=C/c2ccc3[nH]cc(CCN(C)C)c3c2)cc1` [GR 46611], the “movement assay reading, first number column (no head printed)” value (Table 10 c3) was found to be 15815. Further, the “movement assay reading, second number column (no head printed)” value (Table 10 c4) stood at 33199. In addition, the “hit call: detectable change” value (Table 10 c7) was “HIT”.

For the compound `CCCCCCC(C)(C)c1cc(O)c2c(c1)OC(C)(C)[C@@H]1CC=C(CO)C[C@@H]21` [HU 210], under “Table 10 c3”, the “movement assay reading, first number column (no head printed)” value is 15481. The “movement assay reading, second number column (no head printed)” value (Table 10 c4) worked out at 33514. For the setting “Table 10 c7”, the “hit call: detectable change” value is listed as “HIT”.

Regarding `Cc1nccc2c1[nH]c1ccccc12` [Harmane HCl], the “movement assay reading, first number column (no head printed)” value (Table 10 c3) is 1843115. In addition, the “movement assay reading, second number column (no head printed)” value (Table 10 c4) came out at 555251.

On to `O=C(O)c1cc2ccccc2[nH]1` [Indole-2-carboxylic acid], for which the “movement assay reading, first number column (no head printed)” value (Table 10 c3) turned out to be 19362. Moreover, the “movement assay reading, second number column (no head printed)” value (Table 10 c4) was determined as 43403. For the same compound, the “hit call: detectable change” value (Table 10 c7) is listed as “HIT”.

For the compound `CC(=O)N1CCN(c2ccc(OCC3COC(Cn4ccnc4)(c4ccc(Cl)cc4Cl)O3)cc2)CC1` (stereo not shown) [Ketoconazole], the “movement assay reading, first number column (no head printed)” value (Table 10 c3) turned out to be 15803. For the same compound, where the note is “Table 10 c4”, the “movement assay reading, second number column (no head printed)” value was found to be 33531. For the same compound, the “hit call: detectable change” value (Table 10 c7) is on record as “HIT”.

Take `O=c1[nH]c2cc(Cl)ccc2c(O)c1-c1cccc(Oc2ccccc2)c1` [L-701,324]: where the note is “Table 10 c3”, the “movement assay reading, first number column (no head printed)” value is reported as 14647. Moreover, where the note is “Table 10 c4”, the “movement assay reading, second number column (no head printed)” value worked out at 32476. Moreover, the “hit call: detectable change” value (Table 10 c7) was “HIT”.

For `N[C@@H](CP(=O)(O)O)C(=O)O` [L-AP3], where the note is “Table 10 c3”, the “movement assay reading, first number column (no head printed)” value is 22073. The “movement assay reading, second number column (no head printed)” value (Table 10 c4) stood at 41858. Also, the “hit call: detectable change” value (Table 10 c7) is “HIT”.

Turning to `NC(CCP(=O)(O)O)C(=O)O` [L-AP4], under “Table 10 c3”, the “movement assay reading, first number column (no head printed)” value was determined as 19824. In addition, the “movement assay reading, second number column (no head printed)” value (Table 10 c4) was found to be 39523. Further, the “hit call: detectable change” value (Table 10 c7) is recorded as “HIT”.

For `N[C@@H](CCCP(=O)(O)O)C(=O)O` [L-AP5], the “movement assay reading, first number column (no head printed)” value (Table 10 c3) was found to be 21446. Also, the “movement assay reading, second number column (no head printed)” value (Table 10 c4) came out at 42393. For the same compound, the “hit call: detectable change” value (Table 10 c7) was “HIT”.

As for `CC(N)(COP(=O)(O)Oc1ccccc1)C(=O)O` (stereo not shown) [MSOPPE], the “movement assay reading, first number column (no head printed)” value (Table 10 c3) was 23760. Moreover, the “movement assay reading, second number column (no head printed)” value (Table 10 c4) came out at 44614. Where the note is “Table 10 c7”, the “hit call: detectable change” value is “HIT”.

In the case of `Oc1ccc2c3c1O[C@H]1c4c(c5ccccc5n4Cc4ccccc4)C[C@@]4(O)[C@@H](C2)N(CC2CC2)CC[C@]314` [N-Benzyl naltrindole], the “movement assay reading, first number column (no head printed)” value (Table 10 c3) was found to be 14932. The “movement assay reading, second number column (no head printed)” value (Table 10 c4) is listed as 31760. Besides, the “hit call: detectable change” value (Table 10 c7) is on record as “HIT”.

Regarding `NCC(O)COc1cccc2ccccc12` (stereo not shown) [N-desisopropyl propanolol], where the note is “Table 10 c3”, the “movement assay reading, first number column (no head printed)” value amounted to 23737. Further, under “Table 10 c4”, the “movement assay reading, second number column (no head printed)” value came to 43102. In addition, for the setting “Table 10 c7”, the “hit call: detectable change” value is “HIT”.

Consider `N[C@@H](COP(=O)(O)O)C(=O)O` [O-Phospho-L-serine], for which the “movement assay reading, first number column (no head printed)” value (Table 10 c3) was 20292. For the setting “Table 10 c4”, the “movement assay reading, second number column (no head printed)” value is given as 41086. For the same compound, the “hit call: detectable change” value (Table 10 c7) is reported as “HIT”.

Turning to `COc1cc2nc(N3CCN(C(=O)c4ccco4)CC3)nc(N)c2cc1OC` [Prazosin], where the note is “Table 10 c3”, the “movement assay reading, first number column (no head printed)” value stood at 94689. Further, under “Table 10 c4”, the “movement assay reading, second number column (no head printed)” value amounted to 113608. For the same compound, the “hit call: detectable change” value (Table 10 c7) is on record as “HIT”.

On to `OCC(O)COc1cccc2ccccc12` (stereo not shown) [Propanolol glycol], for which the “movement assay reading, first number column (no head printed)” value (Table 10 c3) worked out at 17134. Also, the “movement assay reading, second number column (no head printed)” value (Table 10 c4) is listed as 34849.

Turning to `CC(C)(Cc1c[nH]c2ccc(Cl)cc12)NCCOc1ccccc1OCC1CC1` [RS 17053], for the setting “Table 10 c3”, the “movement assay reading, first number column (no head printed)” value is 14439. Also, the “movement assay reading, second number column (no head printed)” value (Table 10 c4) came to 32050. Also, the “hit call: detectable change” value (Table 10 c7) is “HIT”.

Consider `CC(=O)N[C@@H](CC(=O)N[C@@H](CCC(=O)O)C(=O)O)C(=O)O` [Spaglumic acid], for which, where the note is “Table 10 c3”, the “movement assay reading, first number column (no head printed)” value was determined as 20295. Moreover, the “movement assay reading, second number column (no head printed)” value (Table 10 c4) is 38417. Besides, the “hit call: detectable change” value (Table 10 c7) is on record as “HIT”.

As for `CP(=O)(O)C1=CCNCC1` [TPMPA], the “movement assay reading, first number column (no head printed)” value (Table 10 c3) is recorded as 21792. Moreover, where the note is “Table 10 c4”, the “movement assay reading, second number column (no head printed)” value turned out to be 120778. Besides, for the setting “Table 10 c7”, the “hit call: detectable change” value is given as “HIT”.

Take `C=CC(N)CCC(=O)O` (stereo not shown) [Vigabatrin]: the “movement assay reading, first number column (no head printed)” value (Table 10 c3) is recorded as 20828. Moreover, the “movement assay reading, second number column (no head printed)” value (Table 10 c4) was determined as 61410. In addition, the “hit call: detectable change” value (Table 10 c7) was “HIT”.

As to `COc1ccc(CCN(C)CCc2ccc(OC)c(OC)c2)cc1OC` [YS-035], the “movement assay reading, first number column (no head printed)” value (Table 10 c3) was 21415. Besides, the “movement assay reading, second number column (no head printed)” value (Table 10 c4) is 42457. The “hit call: detectable change” value (Table 10 c7) is “HIT”.

Consider `O=C(O)[C@@H]1C[C@H](C(=O)O)N1` [cis-Azetidine-2,4-dicarboxylic acid], for which the “movement assay reading, first number column (no head printed)” value (Table 10 c3) is 19503. The “movement assay reading, second number column (no head printed)” value (Table 10 c4) is 40568. Besides, the “hit call: detectable change” value (Table 10 c7) is reported as “HIT”.

Take `O=C(O)[C@@H]1C[C@@H](C(=O)O)N1` [tADA]: the “movement assay reading, first number column (no head printed)” value (Table 10 c3) stood at 16096. For the same compound, the “movement assay reading, second number column (no head printed)” value (Table 10 c4) is listed as 32342. In addition, the “hit call: detectable change” value (Table 10 c7) is given as “HIT”.

Regarding S(-)-Atenolol, the “movement assay reading, first number column (no head printed)” value (Table 10 c3) is on record as 18176. In addition, the “movement assay reading, second number column (no head printed)” value (Table 10 c4) is listed as 36336. Besides, the “hit call: detectable change” value (Table 10 c7) is “HIT”.
